Test results from US12662489B2 (Sitryx Therapeutics Limited, priority 2023, dated 2026).

Assays:
[1] = target: T1, MTHFD1 recombinant human enzyme (Homo sapiens, UniProt P11586); test: MTHFD1 inhibition assay (NAD(P)H-Glo luminescence); settings: MTHFD1 IC50, recombinant human enzyme 200 nM, NADP, band
T1 sequence (P11586 2-291 limits assumed): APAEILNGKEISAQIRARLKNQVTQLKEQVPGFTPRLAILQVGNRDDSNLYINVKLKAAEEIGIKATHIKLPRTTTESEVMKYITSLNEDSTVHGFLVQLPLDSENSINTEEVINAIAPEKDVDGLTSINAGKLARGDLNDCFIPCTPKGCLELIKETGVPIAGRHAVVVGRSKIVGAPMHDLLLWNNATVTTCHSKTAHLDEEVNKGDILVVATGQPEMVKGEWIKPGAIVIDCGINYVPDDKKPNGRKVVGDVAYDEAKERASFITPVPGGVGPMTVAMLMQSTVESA

[2] = target: T2, MTHFD2 recombinant human enzyme (Homo sapiens, UniProt P13995); test: MTHFD2 inhibition assay (NAD(P)H-Glo luminescence); settings: for MTHFD1/MTHFD2 IC50 ratio: selectivity of MTHFD2 inhibition over MTHFD1, band
T2 sequence (P13995 36-350): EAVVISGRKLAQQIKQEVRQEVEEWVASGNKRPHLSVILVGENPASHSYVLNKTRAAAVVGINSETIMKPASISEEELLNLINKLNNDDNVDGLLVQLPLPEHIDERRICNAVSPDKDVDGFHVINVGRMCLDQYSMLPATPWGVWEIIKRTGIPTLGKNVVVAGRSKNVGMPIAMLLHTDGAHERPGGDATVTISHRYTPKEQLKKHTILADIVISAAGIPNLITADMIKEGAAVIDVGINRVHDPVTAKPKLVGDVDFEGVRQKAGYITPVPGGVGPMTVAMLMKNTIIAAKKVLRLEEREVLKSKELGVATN

SMILES	IC50 [1]	IC50 [2]	MTHFD1/MTHFD2 IC50 ratio [2]
COC[C@H]1CN(c2cc(C)c3c4c(c(=O)oc3c2C)CN(C(=O)c2ccc(C(=O)NS(=O)(=O)N3CCCC3)c(OC3CCC(F)(F)CC3)c2)CC4)CCN1C [Example 99, (R)-2-((4,4-difluorocyclohexyl)oxy)-4-(8-(3-(methoxymethyl)-4-methylpiperazin-1-yl)-7,10-dimethyl-5-oxo-1,3,4,5-tetrahydro-2H-chromeno[3,4-c]pyridine-3-carbonyl)-N-(pyrrolidin-1-ylsulfonyl)benzamide]	10 to 100 nM	10 to 100 nM	F (<3)
COC[C@H]1CN(c2cc(C)c3c4c(c(=O)oc3c2C)CN(C(=O)c2ccc(C(=O)NS(=O)(=O)N(C)C)c(OC3C5CC6CC(C5)CC3C6)c2)CC4)CCN1C (stereo partly drawn) [Example 100, 2-((adamantan-2-yl)oxy)-N-(N,N-dimethylsulfamoyl)-4-(8-((R)-3-(methoxymethyl)-4-methylpiperazin-1-yl)-7,10-dimethyl-5-oxo-1,3,4,5-tetrahydro-2H-chromeno[3,4-c]pyridine-3-carbonyl)benzamide]	10 to 100 nM	10 to 100 nM	F (<3)
COC[C@H]1CN(c2ccc3c4c(c(=O)oc3c2C)CN(C(=O)c2cc(OC3CCCC3)c(C(=O)NS(=O)(=O)C3(C)CC3)c(C(F)(F)F)c2)CC4)CCN1C [Example 101, (R)-2-(cyclopentyloxy)-4-(8-(3-(methoxymethyl)-4-methylpiperazin-1-yl)-7-methyl-5-oxo-1,3,4,5-tetrahydro-2H-chromeno[3,4-c]pyridine-3-carbonyl)-N-((1-methylcyclopropyl)sulfonyl)-6-(trifluoromethyl)benzamide]	1000 to 5000 nM	100 to 1000 nM	H (>9.0 to 30)
COC[C@H]1CN(c2cc(C)c3c4c(c(=O)oc3c2C)CN(C(=O)c2ccc(C(=O)NS(=O)(=O)N(C)C)c(N3CCC[C@H]3C)c2)CC4)CCN1C [Example 102, N-(N,N-dimethylsulfamoyl)-4-(8-((R)-3-(methoxymethyl)-4-methylpiperazin-1-yl)-7,10-dimethyl-5-oxo-1,3,4,5-tetrahydro-2H-chromeno[3,4-c]pyridine-3-carbonyl)-2-((R)-2-methylpyrrolidin-1-yl)benzamide]	10 to 100 nM	10 to 100 nM	F (<3)
COC[C@H]1CN(c2cc(C)c3c4c(c(=O)oc3c2C)CN(C(=O)c2ccc(C(=O)NS(=O)(=O)N(C)C)c(N3CCC[C@@H]3C)c2)CC4)CCN1C [Example 103, N-(N,N-dimethylsulfamoyl)-4-(8-((R)-3-(methoxymethyl)-4-methylpiperazin-1-yl)-7,10-dimethyl-5-oxo-1,3,4,5-tetrahydro-2H-chromeno[3,4-c]pyridine-3-carbonyl)-2-((S)-2-methylpyrrolidin-1-yl)benzamide]	1 to 10 nM	1 to 10 nM	G (^ 3 to 9.0)
COC[C@H]1CN(c2ccc3c4c(c(=O)oc3c2C)CN(C(=O)c2cc(N3CC5CC5C3)c(C(=O)NS(=O)(=O)C3(C)CC3)c(C(F)(F)F)c2)CC4)CCN1C (stereo partly drawn) [Example 104, 2-(3-azabicyclo[3.1.0]hexan-3-yl)-4-(8-((R)-3-(methoxymethyl)-4-methylpiperazin-1-yl)-7-methyl-5-oxo-1,3,4,5-tetrahydro-2H-chromeno[3,4-c]pyridine-3-carbonyl)-N-((1-methylcyclopropyl)sulfonyl)-6-(trifluoromethyl)benzamide]	> 5000 nM	100 to 1000 nM	H (>9.0 to 30)
COC[C@H]1CN(c2ccc3c4c(c(=O)oc3c2C)CN(C(=O)c2cc(Cl)c(C(=O)NS(=O)(=O)N3CCCC3)c(N3CC5CC5C3)c2)CC4)CCN1C (stereo partly drawn) [Example 105, 2-(3-azabicyclo[3.1.0]hexan-3-yl)-6-chloro-4-(8-((R)-3-(methoxymethyl)-4-methylpiperazin-1-yl)-7-methyl-5-oxo-1,3,4,5-tetrahydro-2H-chromeno[3,4-c]pyridine-3-carbonyl)-N-(pyrrolidin-1-ylsulfonyl)benzamide]	100 to 1000 nM	100 to 1000 nM	G (^ 3 to 9.0)
COC[C@H]1CN(c2cc(C)c3c4c(c(=O)oc3c2C)CN(C(=O)c2cc(C)c(C(=O)NS(=O)(=O)N(C)C)c(N3CCCC3)c2)CC4)CCN1C [Example 106, (R)-N-(N,N-dimethylsulfamoyl)-4-(8-(3-(methoxymethyl)-4-methylpiperazin-1-yl)-7,10-dimethyl-5-oxo-1,3,4,5-tetrahydro-2H-chromeno[3,4-c]pyridine-3-carbonyl)-2-methyl-6-(pyrrolidin-1-yl)benzamide]	100 to 1000 nM	10 to 100 nM	H (>9.0 to 30)
COC[C@H]1CN(c2ccc3c4c(c(=O)oc3c2C)CN(C(=O)c2cc(OC3CCCC3)c(C(=O)NS(=O)(=O)N3CCCC3)c(C(F)(F)F)c2)CC4)CCN1C [Example 107, (R)-2-(cyclopentyloxy)-4-(8-(3-(methoxymethyl)-4-methylpiperazin-1-yl)-7-methyl-5-oxo-1,3,4,5-tetrahydro-2H-chromeno[3,4-c]pyridine-3-carbonyl)-N-(pyrrolidin-1-ylsulfonyl)-6-(trifluoromethyl)benzamide]	1000 to 5000 nM	100 to 1000 nM	G (^ 3 to 9.0)
COC[C@H]1CN(c2cc(C)c3c4c(c(=O)oc3c2C)CN(C(=O)c2cc(OC3CCCC3)c(C(=O)NS(=O)(=O)N(C)C)cc2F)CC4)CCN1C [Example 110, (R)-2-(cyclopentyloxy)-N-(N,N-dimethylsulfamoyl)-5-fluoro-4-(8-(3-(methoxymethyl)-4-methylpiperazin-1-yl)-7,10-dimethyl-5-oxo-1,3,4,5-tetrahydro-2H-chromeno[3,4-c]pyridine-3-carbonyl)benzamide]	10 to 100 nM	10 to 100 nM	F (<3)
COC[C@H]1CN(c2cc(C)c3c4c(c(=O)oc3c2C)CN(C(=O)c2cc(OC3CCCC3)c(C(=O)NS(=O)(=O)N3CCCC3)cc2F)CC4)CCN1C [Example 111, (R)-2-(cyclopentyloxy)-5-fluoro-4-(8-(3-(methoxymethyl)-4-methylpiperazin-1-yl)-7,10-dimethyl-5-oxo-1,3,4,5-tetrahydro-2H-chromeno[3,4-c]pyridine-3-carbonyl)-N-(pyrrolidin-1-ylsulfonyl)benzamide]	10 to 100 nM	10 to 100 nM	F (<3)
COC[C@H]1CN(c2ccc3c4c(c(=O)oc3c2C)CN(C(=O)c2cc(N3CC5CC5C3)c(C(=O)NS(=O)(=O)N3CCCC3)c(C(F)(F)F)c2)CC4)CCN1C (stereo partly drawn) [Example 112, 2-(3-azabicyclo[3.1.0]hexan-3-yl)-4-(8-((R)-3-(methoxymethyl)-4-methylpiperazin-1-yl)-7-methyl-5-oxo-1,3,4,5-tetrahydro-2H-chromeno[3,4-c]pyridine-3-carbonyl)-N-(pyrrolidin-1-ylsulfonyl)-6-(trifluoromethyl)benzamide]	> 5000 nM	100 to 1000 nM	G (^ 3 to 9.0)
COC[C@H]1CN(c2cc(C)c3c4c(c(=O)oc3c2C)CN(C(=O)c2ccc(C(=O)NS(=O)(=O)N3CCCC3)c(N3CC5CCC3C5)c2)CC4)CCN1C (stereo partly drawn) [Example 115, 2-(2-azabicyclo[2.2.1]heptan-2-yl)-4-(8-((R)-3-(methoxymethyl)-4-methylpiperazin-1-yl)-7,10-dimethyl-5-oxo-1,3,4,5-tetrahydro-2H-chromeno[3,4-c]pyridine-3-carbonyl)-N-(pyrrolidin-1-ylsulfonyl)benzamide]	10 to 100 nM	10 to 100 nM	F (<3)
COC[C@H]1CN(c2cc(C)c3c4c(c(=O)oc3c2C)CN(C(=O)c2ccc(C(=O)NS(=O)(=O)N(C)C)c(N3CC5CCC3C5)c2)CC4)CCN1C (stereo partly drawn) [Example 116, 2-(2-azabicyclo[2.2.1]heptan-2-yl)-N-(N,N-dimethylsulfamoyl)-4-(8-((R)-3-(methoxymethyl)-4-methylpiperazin-1-yl)-7,10-dimethyl-5-oxo-1,3,4,5-tetrahydro-2H-chromeno[3,4-c]pyridine-3-carbonyl)benzamide]	1 to 10 nM	10 to 100 nM	F (<3)
COC[C@H]1CN(c2ccc3c4c(c(=O)oc3c2C)CN(C(=O)c2cc(OC3CCCC3)c(C(=O)NS(=O)(=O)N(C)C)c(C(F)(F)F)c2)CC4)CCN1C [Example 117, (R)-2-(cyclopentyloxy)-N-(N,N-dimethylsulfamoyl)-4-(8-(3-(methoxymethyl)-4-methylpiperazin-1-yl)-7-methyl-5-oxo-1,3,4,5-tetrahydro-2H-chromeno[3,4-c]pyridine-3-carbonyl)-6-(trifluoromethyl)benzamide]	1000 to 5000 nM	100 to 1000 nM	H (>9.0 to 30)
COC[C@H]1CN(c2ccc3c4c(c(=O)oc3c2C)CN(C(=O)c2cc(N3CC5CC5C3)c(C(=O)NS(=O)(=O)N(C)C)c(C(F)(F)F)c2)CC4)CCN1C (stereo partly drawn) [Example 118, 2-(3-azabicyclo[3.1.0]hexan-3-yl)-N-(N,N-dimethylsulfamoyl)-4-(8-((R)-3-(methoxymethyl)-4-methylpiperazin-1-yl)-7-methyl-5-oxo-1,3,4,5-tetrahydro-2H-chromeno[3,4-c]pyridine-3-carbonyl)-6-(trifluoromethyl)benzamide]	1000 to 5000 nM	100 to 1000 nM	H (>9.0 to 30)
